Measurements as given in patent publication US20260021061A1, “ARIADNE AND ANALOGS FOR THE TREATMENT OF NEUROLOGICAL AND NEUROMUSCLAR DISORDERS” (priority 2022, published 2026).

Tests used:
[1] = biological target: T1, Serotonin (5-Hydroxytryptamine) 5-HT1A (Homo sapiens, UniProt P08908); test: SafetyScreen44 271110; assay type: binding; details: 10 μM; [3H]8-OH-DPAT; recombinant
T1 construct: purchased Eurofins-Panlabs (contract screen SafetyScreen44) assay ID 271110
Experimental: (§1) A broad screen of 44 molecular targets (SafetyScreen44, Eurofins-Panlabs) for Ariadne were performed, which includes G protein-coupled receptors, steroid nuclear receptors, ion channels, neurotransmitter transporters, and metabolic and signaling enzymes. Only two molecular targets, 5-HT2A and 5-HT2B receptors, emerged above the positive hit threshold, defined as 50% displacement of standard radioligands by 10 uM concentration of Ariadne (FIG. 1b, and Table 1).
(§2) For species, “H”=human, “R”=rat. Test compound screened at all targets at concentration of 10 μM.

[2] = biological target: T2, Adrenergic alpha1A (Homo sapiens, UniProt P35348); test: SafetyScreen44 203110; assay type: binding; details: 10 μM; [3H]Prazosin; recombinant
T2 construct: Eurofins-Panlabs (contract screen) 203110
T2 sequence (P35348 whole entry): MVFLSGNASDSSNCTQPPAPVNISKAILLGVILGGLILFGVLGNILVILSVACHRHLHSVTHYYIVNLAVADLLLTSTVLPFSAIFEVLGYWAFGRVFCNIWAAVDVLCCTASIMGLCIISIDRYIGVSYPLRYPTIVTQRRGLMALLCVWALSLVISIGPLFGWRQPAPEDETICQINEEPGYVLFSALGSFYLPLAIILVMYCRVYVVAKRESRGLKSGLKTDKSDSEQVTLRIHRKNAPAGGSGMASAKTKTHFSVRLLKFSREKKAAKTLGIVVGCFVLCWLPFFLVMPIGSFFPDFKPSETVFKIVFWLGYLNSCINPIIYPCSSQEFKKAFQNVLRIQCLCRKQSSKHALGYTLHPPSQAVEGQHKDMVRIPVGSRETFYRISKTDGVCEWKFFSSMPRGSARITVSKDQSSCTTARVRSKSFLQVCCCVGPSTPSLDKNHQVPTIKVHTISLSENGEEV
Experimental: as §1, §2

[3] = biological target: T3, Serotonin (5-Hydroxytryptamine) 5-HT2B (Homo sapiens, UniProt P41595); test: SafetyScreen44 271700; assay type: binding; details: 10 μM, [3H]Lysergic acid diethylamide (LSD), recombinant
T3 construct: purchased Eurofins-Panlabs (contract screen SafetyScreen44) assay ID 271700
T3 sequence (P41595 whole entry): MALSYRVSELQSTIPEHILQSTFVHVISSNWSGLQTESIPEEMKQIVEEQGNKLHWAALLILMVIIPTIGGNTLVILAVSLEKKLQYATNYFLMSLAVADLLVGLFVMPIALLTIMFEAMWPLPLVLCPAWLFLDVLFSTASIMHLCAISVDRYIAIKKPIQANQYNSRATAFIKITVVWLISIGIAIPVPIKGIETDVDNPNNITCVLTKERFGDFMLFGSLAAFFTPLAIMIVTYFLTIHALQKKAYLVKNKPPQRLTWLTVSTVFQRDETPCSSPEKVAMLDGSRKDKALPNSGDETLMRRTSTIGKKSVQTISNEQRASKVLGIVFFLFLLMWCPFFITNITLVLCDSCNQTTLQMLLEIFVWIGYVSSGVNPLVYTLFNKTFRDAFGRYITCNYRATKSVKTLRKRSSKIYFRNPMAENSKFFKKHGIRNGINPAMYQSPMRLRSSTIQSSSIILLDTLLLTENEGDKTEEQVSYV
Experimental: as §1, §2

[4] = biological target: hSERT (Homo sapiens, UniProt P31645); test: SERT-mediated cell uptake assay (fluorescence uptake inhibition); assay type: cell-based
Sequence of hSERT (P31645 whole entry): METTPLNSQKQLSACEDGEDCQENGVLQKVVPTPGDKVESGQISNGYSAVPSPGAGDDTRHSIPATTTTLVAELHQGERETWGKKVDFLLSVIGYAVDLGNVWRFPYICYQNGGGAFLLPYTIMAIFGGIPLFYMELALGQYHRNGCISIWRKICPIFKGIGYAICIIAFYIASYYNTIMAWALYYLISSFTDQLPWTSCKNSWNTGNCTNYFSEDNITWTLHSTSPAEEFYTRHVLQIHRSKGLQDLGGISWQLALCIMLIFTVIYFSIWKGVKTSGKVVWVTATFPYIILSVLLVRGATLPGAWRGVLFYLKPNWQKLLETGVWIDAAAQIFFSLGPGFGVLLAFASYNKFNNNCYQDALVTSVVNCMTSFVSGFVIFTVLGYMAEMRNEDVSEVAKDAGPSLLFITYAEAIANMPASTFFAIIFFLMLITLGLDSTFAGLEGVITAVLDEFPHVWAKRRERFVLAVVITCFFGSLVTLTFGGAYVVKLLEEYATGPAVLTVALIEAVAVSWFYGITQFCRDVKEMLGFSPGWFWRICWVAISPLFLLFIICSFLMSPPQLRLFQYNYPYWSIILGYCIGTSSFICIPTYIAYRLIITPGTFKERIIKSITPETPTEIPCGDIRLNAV

[5] = biological target: T4, Muscarinic M2 (Homo sapiens, UniProt P08172); test: SafetyScreen44 252710; assay type: binding; details: 10 μM; [3H]N-Methylscopolamine; recombinant
T4 construct: purchased Eurofins-Panlabs (contract screen SafetyScreen44) assay ID 252710
T4 sequence (P08172 whole entry): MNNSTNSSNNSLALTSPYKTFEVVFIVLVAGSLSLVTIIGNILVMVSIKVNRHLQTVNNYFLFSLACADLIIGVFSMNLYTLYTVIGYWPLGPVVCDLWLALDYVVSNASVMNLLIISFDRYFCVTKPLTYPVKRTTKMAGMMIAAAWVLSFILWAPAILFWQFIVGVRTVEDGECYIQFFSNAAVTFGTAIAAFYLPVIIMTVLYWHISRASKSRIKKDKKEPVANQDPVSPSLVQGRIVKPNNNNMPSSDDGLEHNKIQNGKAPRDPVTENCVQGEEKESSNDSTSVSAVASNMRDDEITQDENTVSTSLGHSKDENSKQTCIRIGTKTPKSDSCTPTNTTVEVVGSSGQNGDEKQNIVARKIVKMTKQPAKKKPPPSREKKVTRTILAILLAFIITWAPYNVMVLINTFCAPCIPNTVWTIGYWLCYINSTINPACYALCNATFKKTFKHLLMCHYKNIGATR
Experimental: as §1, §2

[6] = biological target: T5, Glucocorticoid (Homo sapiens, UniProt P04150); test: SafetyScreen44 232030; assay type: binding; details: 10 μM; [3H]Dexamethasone; recombinant
T5 construct: Eurofins-Panlabs (contract screen) 232030
Experimental: as §1, §2

[7] = biological target: T6, Monoamine Oxidase MAO-A (Homo sapiens, UniProt P21397); test: SafetyScreen44 140010; assay type: biochemical; details: 10 μM; Kynuramine; recombinant
T6 construct: Eurofins-Panlabs (contract screen) 140010
T6 sequence (P21397 whole entry): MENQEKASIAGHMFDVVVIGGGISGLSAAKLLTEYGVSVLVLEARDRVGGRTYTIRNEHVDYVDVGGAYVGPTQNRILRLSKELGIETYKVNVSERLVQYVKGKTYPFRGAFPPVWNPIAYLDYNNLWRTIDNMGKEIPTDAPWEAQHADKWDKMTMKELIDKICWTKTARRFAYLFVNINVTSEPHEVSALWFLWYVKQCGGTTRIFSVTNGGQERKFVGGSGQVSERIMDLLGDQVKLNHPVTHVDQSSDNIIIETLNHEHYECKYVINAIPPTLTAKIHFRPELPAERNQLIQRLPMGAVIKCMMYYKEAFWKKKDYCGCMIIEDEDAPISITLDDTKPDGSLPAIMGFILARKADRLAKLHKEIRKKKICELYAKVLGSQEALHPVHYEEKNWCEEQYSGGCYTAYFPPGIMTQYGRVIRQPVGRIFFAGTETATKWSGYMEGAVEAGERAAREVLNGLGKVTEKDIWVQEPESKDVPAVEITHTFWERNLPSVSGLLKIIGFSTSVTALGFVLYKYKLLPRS
Experimental: as §1, §2

[8] = biological target: T7, Phosphodiesterase PDE4D2 (Homo sapiens, UniProt Q08499); test: SafetyScreen44 154420; assay type: biochemical; details: 10 μM; FAM-cAMP; recombinant
T7 construct: Eurofins-Panlabs (contract screen) 154420
T7 sequence (Q08499 303-809 limits assumed): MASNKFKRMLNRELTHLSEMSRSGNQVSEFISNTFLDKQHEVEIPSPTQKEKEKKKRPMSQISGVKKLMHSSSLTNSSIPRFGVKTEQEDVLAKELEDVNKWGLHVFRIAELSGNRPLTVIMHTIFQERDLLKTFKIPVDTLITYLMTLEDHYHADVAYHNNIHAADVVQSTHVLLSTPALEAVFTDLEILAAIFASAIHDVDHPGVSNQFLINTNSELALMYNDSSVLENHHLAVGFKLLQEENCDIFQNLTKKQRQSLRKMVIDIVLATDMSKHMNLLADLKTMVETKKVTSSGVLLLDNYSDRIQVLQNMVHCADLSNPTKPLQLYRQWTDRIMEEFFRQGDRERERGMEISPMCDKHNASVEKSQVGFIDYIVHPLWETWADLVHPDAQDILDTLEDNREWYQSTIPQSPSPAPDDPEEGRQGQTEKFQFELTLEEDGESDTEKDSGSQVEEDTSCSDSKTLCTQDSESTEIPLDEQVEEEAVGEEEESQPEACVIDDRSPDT
Experimental: as §1, §2

[9] = tested on: GABAA, Flunitrazepam, Central; test: SafetyScreen44 226600; assay type: binding, rat; details: 10 μM; [3H]Flunitrazepam; brain (minus cerebellum)
Experimental: as §1, §2

[10] = biological target: T8, Adenosine A2A (Homo sapiens, UniProt P29274); test: SafetyScreen44 200610; assay type: binding; details: 10 μM; [3H]CGS-21680; recombinant
T8 construct: Eurofins-Panlabs (contract screen) 200610
T8 sequence (P29274 whole entry): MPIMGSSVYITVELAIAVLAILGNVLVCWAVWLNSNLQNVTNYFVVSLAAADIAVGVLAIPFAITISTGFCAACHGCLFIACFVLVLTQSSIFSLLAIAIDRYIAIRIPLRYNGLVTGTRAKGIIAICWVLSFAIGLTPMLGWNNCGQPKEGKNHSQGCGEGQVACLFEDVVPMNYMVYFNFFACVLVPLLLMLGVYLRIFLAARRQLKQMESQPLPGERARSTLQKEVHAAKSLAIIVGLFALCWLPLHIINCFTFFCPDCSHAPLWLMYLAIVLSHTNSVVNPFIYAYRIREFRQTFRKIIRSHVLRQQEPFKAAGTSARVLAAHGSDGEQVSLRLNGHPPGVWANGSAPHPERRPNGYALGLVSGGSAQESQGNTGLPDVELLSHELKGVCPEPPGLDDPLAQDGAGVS
Experimental: as §1, §2

[11] = biological target: hDAT (Homo sapiens, UniProt Q01959); test: DAT fluorescence uptake inhibition; assay type: cell-based
[12] = biological target: T9, Muscarinic M3 (Homo sapiens, UniProt P20309); test: SafetyScreen44 252810; assay type: binding; details: 10 μM; [3H]N-Methylscopolamine; recombinant
T9 construct: purchased Eurofins-Panlabs (contract screen SafetyScreen44) assay ID 252810
T9 sequence (P20309 whole entry): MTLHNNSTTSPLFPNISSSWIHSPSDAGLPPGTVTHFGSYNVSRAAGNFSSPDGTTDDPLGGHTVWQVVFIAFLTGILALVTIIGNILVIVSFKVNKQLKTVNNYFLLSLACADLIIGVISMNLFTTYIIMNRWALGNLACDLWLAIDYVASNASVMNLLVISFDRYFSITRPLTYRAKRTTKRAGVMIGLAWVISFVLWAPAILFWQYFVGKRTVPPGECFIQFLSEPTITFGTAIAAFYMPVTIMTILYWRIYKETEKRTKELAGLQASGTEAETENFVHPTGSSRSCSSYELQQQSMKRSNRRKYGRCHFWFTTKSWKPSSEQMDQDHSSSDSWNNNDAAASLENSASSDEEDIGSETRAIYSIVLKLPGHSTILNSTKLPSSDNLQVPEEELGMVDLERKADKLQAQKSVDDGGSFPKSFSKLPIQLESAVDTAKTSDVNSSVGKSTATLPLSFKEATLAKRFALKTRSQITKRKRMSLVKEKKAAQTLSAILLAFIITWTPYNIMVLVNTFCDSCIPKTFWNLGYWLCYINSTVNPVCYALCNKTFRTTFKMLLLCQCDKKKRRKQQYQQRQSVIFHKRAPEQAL
Experimental: as §1, §2

[13] = biological target: T10, Serotonin (5-Hydroxytryptamine) 5-HT1B (Homo sapiens, UniProt P28222); test: SafetyScreen44 271230; assay type: binding; details: 10 μM; [3H]GR125743; recombinant
T10 construct: purchased Eurofins-Panlabs (contract screen SafetyScreen44) assay ID 271230
T10 sequence (P28222 whole entry): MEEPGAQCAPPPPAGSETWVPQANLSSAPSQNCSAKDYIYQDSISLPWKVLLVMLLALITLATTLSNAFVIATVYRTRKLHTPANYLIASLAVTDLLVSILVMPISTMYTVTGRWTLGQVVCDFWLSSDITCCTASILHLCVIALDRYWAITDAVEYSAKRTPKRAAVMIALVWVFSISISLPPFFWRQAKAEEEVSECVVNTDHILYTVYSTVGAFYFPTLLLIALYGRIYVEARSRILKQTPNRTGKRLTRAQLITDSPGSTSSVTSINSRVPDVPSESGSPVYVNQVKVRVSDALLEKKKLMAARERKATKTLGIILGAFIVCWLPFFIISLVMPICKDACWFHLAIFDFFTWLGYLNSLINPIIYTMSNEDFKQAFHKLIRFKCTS
Experimental: as §1, §2

[14] = biological target: T11, Histamine H1 (Homo sapiens, UniProt P35367); test: SafetyScreen44 239610; assay type: binding; details: 10 μM; [3H]Pyrilamine; recombinant
T11 construct: purchased Eurofins-Panlabs (contract screen SafetyScreen44) assay ID 239610
T11 sequence (P35367 whole entry): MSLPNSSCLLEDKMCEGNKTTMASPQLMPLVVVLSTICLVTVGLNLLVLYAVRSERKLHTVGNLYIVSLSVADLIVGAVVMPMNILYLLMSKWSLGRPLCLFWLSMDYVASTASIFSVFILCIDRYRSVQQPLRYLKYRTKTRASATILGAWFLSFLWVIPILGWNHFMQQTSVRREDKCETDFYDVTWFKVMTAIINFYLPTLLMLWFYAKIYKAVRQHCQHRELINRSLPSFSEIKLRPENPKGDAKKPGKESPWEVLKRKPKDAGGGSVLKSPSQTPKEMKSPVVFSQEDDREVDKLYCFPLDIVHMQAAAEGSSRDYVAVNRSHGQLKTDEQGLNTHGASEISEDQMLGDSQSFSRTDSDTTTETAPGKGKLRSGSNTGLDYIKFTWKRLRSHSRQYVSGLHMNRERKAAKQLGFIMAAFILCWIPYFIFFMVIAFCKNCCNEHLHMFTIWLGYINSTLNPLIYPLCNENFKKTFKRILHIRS
Experimental: as §1, §2

[15] = tested on: auxilin knockout (KO) mice; test: Open field test in auxilin KO mouse model of Parkinson's Disease; assay type: in vivo; details: Aux-KO mice; 10 mg/kg intraperitoneal; confounded by learning effects
[16] = tested on: mice; test: Elevated plus maze (EPM); assay type: in vivo, mouse; details: 30 minutes and 4 hours post single s.c. injection
Experimental: (§3) FIGS. 7A-D Effect of Ariadne in behavioral conflict paradigms. (a) Survival plot of effect of (R)-Ariadne (10 mg/kg) on latency to feed in the novelty suppressed feeding (NSF) test 7 days post a single drug administration. (b) Effect of 6 mg/kg and 10 mg/kg (R)-Ariadne on latency to feed in the novelty suppressed feeding (NSF) test 7 days post a single drug administration. (c) Effect of (R)-Ariadne and (±)-DOPR on the time spent in the open vs closed arms and (d) corresponding arm entries 30 minutes and 4 hours post a single subcutaneous injection.

[17] = tested on: mice; test: Novelty suppressed feeding (NSF); assay type: in vivo, mouse; details: 7 days post-drug administration; 10 mg/kg
Experimental: as §3

SMILES	% Response [1]	% Response [2]	% Response ([3]; listed as (rac)-Ariadne)	% Response ([3]; listed as Ariadne)	IC50 [4]	% Response [5]	% Response [6]	% Response [7]	% Response [8]	% Response [9]	% Response [10]	IC50 [11]	% Response [12]	% Response [13]	% Response [14]	overall locomotory deficits in the open field [15]	entries and time spent in the open arms [16]	latency to bite the presented food pellets [17]
CCC(N)Cc1cc(OC)c(C)cc1OC (racemic) [Compound 32, 1-(2,5-dimethoxy-4-methylphenyl)butan-2-amine]	36%	24%	more than 50%	72%	> 50 µM	0%	−5%	−3%	−2%	−15%	10%	> 50 µM	−11%	12%	13%	–	–	–
CC[C@@H](N)Cc1cc(OC)c(C)cc1OC [(R)-Ariadne]	–	–	–	–	–	–	–	–	–	–	–	–	–	–	–	partially rescued	acute anxiogenic-like effect	dose-dependent trend toward reducing latency
